According to ChEMBL document CHEMBL1201862, “PubChem BioAssay data set” (2004):
Activity calls are given as the source filed them.

Columns and labels:
[1] = target: Luciferin 4-monooxygenase (Photinus pyralis, UniProt P08659); assay: firefly luciferase enzyme inhibitors, dose response, biochemical, luminescence (AID 1891)
[2] = target: Kappa-type opioid receptor (Homo sapiens, UniProt P41145); format: functional
[3] = target: T1, Rac GTPase-activating protein 1 (Homo sapiens, UniProt Q9H0H5); assay: MgcRacGAP GTPase-activating activity inhibitors, confirmation, biochemical, ADP Hunter fluorescence, primary and confirmatory (AID 624330); format: functional
T1 sequence (Q9H0H5 whole entry): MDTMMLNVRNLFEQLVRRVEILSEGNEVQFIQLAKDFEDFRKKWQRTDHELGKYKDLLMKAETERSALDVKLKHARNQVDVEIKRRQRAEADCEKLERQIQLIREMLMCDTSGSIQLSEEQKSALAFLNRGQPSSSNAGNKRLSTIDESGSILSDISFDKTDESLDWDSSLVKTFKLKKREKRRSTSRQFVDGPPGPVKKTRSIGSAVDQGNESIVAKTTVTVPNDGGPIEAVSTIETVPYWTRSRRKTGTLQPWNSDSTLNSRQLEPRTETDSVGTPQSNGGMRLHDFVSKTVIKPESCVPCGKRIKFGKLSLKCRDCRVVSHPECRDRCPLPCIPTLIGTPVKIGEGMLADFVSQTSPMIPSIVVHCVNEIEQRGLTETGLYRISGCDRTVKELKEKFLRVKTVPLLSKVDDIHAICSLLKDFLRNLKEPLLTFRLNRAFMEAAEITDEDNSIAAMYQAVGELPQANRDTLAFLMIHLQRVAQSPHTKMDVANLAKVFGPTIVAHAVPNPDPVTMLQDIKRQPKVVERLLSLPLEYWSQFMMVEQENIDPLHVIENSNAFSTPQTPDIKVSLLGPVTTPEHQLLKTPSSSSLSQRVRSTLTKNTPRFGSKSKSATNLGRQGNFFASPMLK

[4] = Luminescence Cell-Based Dose Response HTS to Identify Inhibitors of 5'UTR Stem-Loop Driven Prion Protein mRNA Translation in H4 Neuroglioblastoma Cells. [Related pubchem assays: 1827 (Project Summary), 1813 (Primary HTS)]; format: functional
Beta Lactamase = Beta Lactamase (Pseudomonas aeruginosa, UniProt Q932Y6); assay: beta-lactamase reporter inhibitor potency, dose response, artefact control for TLR9-MyD88 binding inhibitor project, BLA reporter cells, FRET fluorescence (AID 588341); format: cell-based;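 further: cell based assay in CHO-K1 cells stably expressing beta-lactamase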
Beta Lactamase, sequence (Q932Y6 whole entry): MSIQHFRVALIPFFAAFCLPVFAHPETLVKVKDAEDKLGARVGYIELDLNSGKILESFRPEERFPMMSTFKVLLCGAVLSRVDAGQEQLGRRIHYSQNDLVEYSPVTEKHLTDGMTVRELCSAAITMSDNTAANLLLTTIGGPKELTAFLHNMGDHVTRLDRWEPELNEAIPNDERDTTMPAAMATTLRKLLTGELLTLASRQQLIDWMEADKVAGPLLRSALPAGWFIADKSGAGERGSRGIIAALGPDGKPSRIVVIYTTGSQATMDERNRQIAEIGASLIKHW

[5] = inhibitors of SNCA 5'UTR-driven reporter translation, confirmation, H4 neuroglioma cells, luminescence (AID 1988); format: functional, cell-based
[6] = HepG2 cell cytotoxicity, dose response, cytotoxicity control for Shn3 inhibitor project, CellTiter-Glo, cherry-picked (AID 624134); format: functional, cell-based
Wee1-like protein kinase = Wee1-like protein kinase (Homo sapiens, UniProt P30291); assay: Dose Response Cell-based Assay for Inhibitors of Wee1 Degradation. [Related pubchem assays: 1410, 1321 ]; format: functional
Wee1-like protein kinase, sequence (P30291 whole entry): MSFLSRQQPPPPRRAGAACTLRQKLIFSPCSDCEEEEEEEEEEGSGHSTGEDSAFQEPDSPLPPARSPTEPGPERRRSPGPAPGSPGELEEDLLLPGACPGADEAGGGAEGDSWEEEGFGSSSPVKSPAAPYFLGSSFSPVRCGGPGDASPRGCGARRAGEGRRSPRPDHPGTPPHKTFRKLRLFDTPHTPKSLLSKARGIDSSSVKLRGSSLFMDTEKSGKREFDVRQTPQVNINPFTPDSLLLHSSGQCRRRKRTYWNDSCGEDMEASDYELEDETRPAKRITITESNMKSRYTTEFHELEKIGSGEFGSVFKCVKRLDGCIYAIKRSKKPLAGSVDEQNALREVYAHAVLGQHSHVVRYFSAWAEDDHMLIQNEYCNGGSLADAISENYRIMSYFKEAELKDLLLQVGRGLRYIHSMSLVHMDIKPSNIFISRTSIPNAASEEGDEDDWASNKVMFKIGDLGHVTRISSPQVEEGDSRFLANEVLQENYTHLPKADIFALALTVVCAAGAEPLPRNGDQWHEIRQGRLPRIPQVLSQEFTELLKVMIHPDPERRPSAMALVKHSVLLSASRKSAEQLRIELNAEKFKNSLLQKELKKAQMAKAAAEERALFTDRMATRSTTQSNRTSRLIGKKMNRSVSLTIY

[7] = inhibitors of firefly luciferase expression or activity, dose response, H4 neuroglioma cells, luminescence (AID 1990); format: functional, cell-based
[8] = target: T2, Apoptotic protease-activating factor 1 (Homo sapiens, UniProt O14727); format: functional
T2 sequence (O14727 whole entry): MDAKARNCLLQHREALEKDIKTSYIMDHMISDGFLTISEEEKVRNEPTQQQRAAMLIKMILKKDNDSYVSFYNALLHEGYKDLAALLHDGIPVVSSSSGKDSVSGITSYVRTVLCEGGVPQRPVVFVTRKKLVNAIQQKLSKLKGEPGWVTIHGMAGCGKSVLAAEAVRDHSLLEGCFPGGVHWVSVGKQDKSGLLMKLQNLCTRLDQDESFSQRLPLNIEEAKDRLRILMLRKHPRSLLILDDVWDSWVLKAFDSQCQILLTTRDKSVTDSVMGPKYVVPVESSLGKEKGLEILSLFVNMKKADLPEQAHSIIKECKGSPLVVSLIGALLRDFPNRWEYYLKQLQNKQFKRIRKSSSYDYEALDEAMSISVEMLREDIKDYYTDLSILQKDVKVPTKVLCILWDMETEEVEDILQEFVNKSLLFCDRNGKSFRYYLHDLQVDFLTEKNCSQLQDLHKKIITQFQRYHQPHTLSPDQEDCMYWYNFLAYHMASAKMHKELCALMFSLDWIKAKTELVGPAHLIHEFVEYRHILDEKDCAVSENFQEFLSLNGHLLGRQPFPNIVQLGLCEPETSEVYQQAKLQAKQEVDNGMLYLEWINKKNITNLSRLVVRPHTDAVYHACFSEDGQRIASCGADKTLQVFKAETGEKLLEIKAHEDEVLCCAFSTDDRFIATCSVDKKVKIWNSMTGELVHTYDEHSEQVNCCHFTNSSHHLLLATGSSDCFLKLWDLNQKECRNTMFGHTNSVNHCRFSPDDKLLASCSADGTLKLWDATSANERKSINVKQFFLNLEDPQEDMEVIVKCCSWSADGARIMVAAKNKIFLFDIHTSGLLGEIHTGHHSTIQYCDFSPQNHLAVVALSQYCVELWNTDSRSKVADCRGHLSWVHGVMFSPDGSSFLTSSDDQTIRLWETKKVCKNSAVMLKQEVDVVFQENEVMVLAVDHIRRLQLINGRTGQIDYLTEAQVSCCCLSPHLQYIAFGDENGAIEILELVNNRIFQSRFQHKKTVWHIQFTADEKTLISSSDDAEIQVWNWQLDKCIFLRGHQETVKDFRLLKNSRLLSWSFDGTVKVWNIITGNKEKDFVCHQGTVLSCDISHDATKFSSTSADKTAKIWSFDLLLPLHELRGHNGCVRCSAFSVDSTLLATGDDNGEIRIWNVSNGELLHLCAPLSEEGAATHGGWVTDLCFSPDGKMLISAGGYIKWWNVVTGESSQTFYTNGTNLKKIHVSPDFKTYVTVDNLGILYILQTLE

[9] = target: T3, Mitochondrial peptide methionine sulfoxide reductase (Bos taurus, UniProt P54149); format: functional;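 further: absorbance read-out, biochemical high-throughput dose-response screen for MsrA inhibitors, confirmatory; recombinant bovine MsrA coupled to E. coli TrxB with NADPH and selenocystamine; potency is for inhibitors of MsrA activity on DMSO substrate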
T3 sequence (P54149 whole entry): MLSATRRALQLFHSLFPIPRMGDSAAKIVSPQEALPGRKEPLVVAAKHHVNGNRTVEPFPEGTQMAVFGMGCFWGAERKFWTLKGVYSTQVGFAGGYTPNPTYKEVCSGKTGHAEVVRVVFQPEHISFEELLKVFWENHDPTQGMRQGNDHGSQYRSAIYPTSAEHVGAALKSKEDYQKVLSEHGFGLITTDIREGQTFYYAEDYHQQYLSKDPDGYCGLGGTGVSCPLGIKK

[10] = target: Heat shock protein HSP 90-alpha (Homo sapiens, UniProt P07900); assay: Luminescence-based dose response biochemical high throughput screening assay for inhibitors of the Heat Shock Protein 90 (HSP90). [Related pubchem assays: 1831 (Summary AID.), 1846 (Confirmation screen.), 1789 (Primary screen.)]
Hexokinase HKDC1 = Hexokinase HKDC1 (Homo sapiens, UniProt Q2TB90); assay: HKDC1 hexokinase inhibitors, dose response, biochemical, W721R variant (AID 504729); format: functional
Hexokinase HKDC1, sequence (Q2TB90 whole entry): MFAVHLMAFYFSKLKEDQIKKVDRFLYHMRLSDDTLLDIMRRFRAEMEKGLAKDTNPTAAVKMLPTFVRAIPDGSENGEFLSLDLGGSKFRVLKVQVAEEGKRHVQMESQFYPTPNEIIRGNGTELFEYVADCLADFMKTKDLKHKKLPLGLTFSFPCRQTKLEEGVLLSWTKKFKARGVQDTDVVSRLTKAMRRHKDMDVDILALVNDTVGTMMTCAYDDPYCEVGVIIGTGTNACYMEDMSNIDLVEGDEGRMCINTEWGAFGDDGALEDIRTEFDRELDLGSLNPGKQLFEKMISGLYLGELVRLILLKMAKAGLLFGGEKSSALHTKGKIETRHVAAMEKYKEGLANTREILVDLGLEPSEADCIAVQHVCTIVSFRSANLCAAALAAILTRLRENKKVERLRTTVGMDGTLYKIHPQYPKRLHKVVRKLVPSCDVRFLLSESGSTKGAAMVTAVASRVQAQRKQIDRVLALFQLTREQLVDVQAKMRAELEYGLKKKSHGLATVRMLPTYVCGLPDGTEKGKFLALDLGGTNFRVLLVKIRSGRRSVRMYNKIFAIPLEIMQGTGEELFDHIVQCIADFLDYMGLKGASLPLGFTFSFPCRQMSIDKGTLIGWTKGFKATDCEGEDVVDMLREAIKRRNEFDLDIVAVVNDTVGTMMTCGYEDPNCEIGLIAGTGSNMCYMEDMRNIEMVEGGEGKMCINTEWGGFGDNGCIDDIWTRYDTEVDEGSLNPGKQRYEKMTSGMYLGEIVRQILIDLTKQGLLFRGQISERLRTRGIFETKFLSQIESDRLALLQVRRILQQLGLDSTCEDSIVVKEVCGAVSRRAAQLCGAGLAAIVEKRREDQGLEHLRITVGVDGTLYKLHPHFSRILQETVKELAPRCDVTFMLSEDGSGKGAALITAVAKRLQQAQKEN

[11] = target: Serine/threonine-protein phosphatase PP1-alpha catalytic subunit (Homo sapiens, UniProt P62136); assay: PP1 phosphatase inhibitors, dose response, biochemical, fluorescence (AID 2394)
Serine/threonine-protein phosphatase PP1-alpha catalytic subunit, sequence (P62136 whole entry): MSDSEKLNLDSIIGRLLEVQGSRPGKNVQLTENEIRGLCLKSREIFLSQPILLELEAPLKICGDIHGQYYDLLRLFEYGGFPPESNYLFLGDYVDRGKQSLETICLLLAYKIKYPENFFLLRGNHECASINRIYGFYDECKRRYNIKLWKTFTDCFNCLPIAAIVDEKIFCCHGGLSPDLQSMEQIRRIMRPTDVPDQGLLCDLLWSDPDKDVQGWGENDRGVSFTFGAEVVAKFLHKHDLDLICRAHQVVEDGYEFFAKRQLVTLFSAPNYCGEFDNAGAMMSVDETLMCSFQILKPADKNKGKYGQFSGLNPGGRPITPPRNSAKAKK

Luciferin 4-monooxygenase, sequence (P08659 whole entry): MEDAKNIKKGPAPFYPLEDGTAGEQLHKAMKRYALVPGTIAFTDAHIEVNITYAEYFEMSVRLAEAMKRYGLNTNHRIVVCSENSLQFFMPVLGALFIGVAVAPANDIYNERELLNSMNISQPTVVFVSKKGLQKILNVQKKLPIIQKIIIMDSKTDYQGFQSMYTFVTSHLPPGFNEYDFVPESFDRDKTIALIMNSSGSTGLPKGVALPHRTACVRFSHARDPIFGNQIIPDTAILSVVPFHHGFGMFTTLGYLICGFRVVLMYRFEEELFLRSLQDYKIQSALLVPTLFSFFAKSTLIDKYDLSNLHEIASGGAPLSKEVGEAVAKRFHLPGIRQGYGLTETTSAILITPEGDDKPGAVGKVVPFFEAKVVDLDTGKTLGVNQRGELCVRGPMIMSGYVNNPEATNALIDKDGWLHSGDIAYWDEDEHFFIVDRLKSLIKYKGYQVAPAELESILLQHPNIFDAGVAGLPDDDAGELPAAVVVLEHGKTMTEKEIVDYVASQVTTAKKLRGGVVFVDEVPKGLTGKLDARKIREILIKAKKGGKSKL
Kappa-type opioid receptor, sequence (P41145 whole entry): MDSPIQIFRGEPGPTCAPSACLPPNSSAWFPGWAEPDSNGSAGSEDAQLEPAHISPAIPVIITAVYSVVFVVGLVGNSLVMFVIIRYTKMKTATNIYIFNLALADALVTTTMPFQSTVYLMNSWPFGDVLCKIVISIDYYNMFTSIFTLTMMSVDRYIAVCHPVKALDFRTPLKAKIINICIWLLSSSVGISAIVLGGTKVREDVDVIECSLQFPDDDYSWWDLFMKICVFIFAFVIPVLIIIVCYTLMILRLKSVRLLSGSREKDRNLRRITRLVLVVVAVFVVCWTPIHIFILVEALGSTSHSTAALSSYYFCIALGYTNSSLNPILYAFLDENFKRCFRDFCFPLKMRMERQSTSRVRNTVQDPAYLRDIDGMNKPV

Row | Structure (SMILES) | EC50 [1] | IC50 [2] [µM] | IC50 [3] | EC50 [4] | IC50 (Beta Lactamase) | EC50 [5] | AC50 [6] | EC50 (Wee1-like protein kinase) | EC50 [7] | IC50 [8] | IC50 [9] | IC50 [10] | IC50 (Hexokinase HKDC1) | IC50 [11]
1 | COc1ccc(NC(=O)/C(Cl)=C(/Cl)[S+]([O-])Cc2ccccc2)cn1 (centres undefined) | > 112 µM (not active) | 7.62 | 36.5 µM (active) | 0.998 µM (active) | 16 µM (inactive) | 4.57 µM (active) | 5.52 µM (active) | > 49.7 µM (not active) | 5.93 µM (active) |  |  |  |  | 
2 | Cc1ccc(S(=O)(=O)/N=C2\C=C(Nc3cccc(C(=O)O)c3)C(=O)c3ccccc32)c(C)c1 |  |  |  |  |  |  |  |  |  | 4.11 µM (active) | 74.5 µM (inactive) | 0.919 µM (active) | 8.6 µM (active) | 27.1 µM (not active)
